Test results published in publication PMC11904948, “Peptide‐Drug Conjugate for Therapeutic Reprogramming of Tumor‐Associated Macrophages in Breast Cancer” (Advanced Science, 2025).

Test system: Balb/c BMDM
Assay: Flow cytometry of marker expression on Balb/c BMDM
Format: cell-based, mouse
Conditions: 10 µM 4 h, 48 h after treatment, n = 4
Method: Figure 6 MACTIDE‐V promotes a YAP‐ mediated anti‐ tumoral switch in bone marrow‐derived macrophages. Day 5 BMDM were incubated for 4 h with 10 µM conjugates, washed, and followed‐up in media. A) YAP Immunofluorescence (shown in red) was analyzed 3 h after treatment and B) phagocytosis of fluorescent E. coli particles at 48 h follow‐up. C) Flow cytometry on BMDM 48 h after treatment. Left panel, GeoMean of MHC II, CD206, CD80, and PD‐L1 in Balb/c BMDM. Median ± interquartile range. Repeated measures one‐way ANOVA with multiple comparisons, for n = 4 independent experiments. ^* p ≤ 0.05, ^** p ≤ 0.01. D) Heatmap of the mRNA expression of genes involved in the functional activation of BMDM, YAP signaling, and adhesion, measured by real‐time PCR 48 h after treatment in BALB/c BMDM. n = 3 independent experiments. […]
At the mRNA level, MACTIDE‐V induced a clear increase in Il‐12, Chil3 and Nos2 genes, (Figure 6D, left panel). […] To further investigate whether the effect of MACTIDE‐V was mediated by YAP targeting, we analyzed a set of 7 YAP‐regulated genes (Figure 6D, right panel). […]

With “Vert‐Ahx‐G(CTKSIPPIC)SPGAK‐OH (disulfide) [MACTIDE‐V]” the “expression of CD80 (GeoMean)” value was “no significant changes”, the “expression of CD206 (GeoMean)” value was “no significant changes” and the “expression of MHC II (GeoMean)” value (versus CtrlPep‐V and untreated) was “upregulated”. The “expression of PD‐L1 (GeoMean)” value (versus CtrlPep‐V and untreated) was “upregulated”.
